Data: patent EP4768487A1, “FUSED LACTAM RING COMPOUND AND USE THEREOF” (Chengdu Zenitar Biomedical Technology Co., Ltd., priority 2023, dated 2025)

Assays:
PARP1 = target: T1, PARP1 (Homo sapiens, UniProt P09874); assay: PARP1 enzyme assay (histone-coated plate, chemiluminescence); type: biochemical; settings: PARP1 0.02 nM, DNA 0.8 nM, NAD+ 3.5 µM; read-out: PARP-1 IC50
T1 construct: purchased BPS 80501
Experimental: 1.1.1. Buffer preparation: PBST: 1× PBS, 0.05% Tween-20; blocking buffer: 1× PBS, 0.05% Tween-20, 5% BSA; reaction buffer: 50 mM Tris-HCl (pH 7.5), 0.005% Tween-20, 0.01% BSA.
1.1.2. Coating: A 50 ng/mL Histone coating solution was prepared with 1× PBS and then transferred to a 384-well reaction plate at 25 µL/well. The plate was coated at 4 °C overnight.
1.1.3. Washing: After the coating was completed, the coating solution was discarded, and the plate was washed with the PBST solution. The method was as follows: PBST was transferred to the 384-well reaction plate at 50 µL/well, and the plate was left to stand for 5 min. The washing solution was then discarded, and the plate was refilled. The washing step was repeated 3 times. Finally, the reaction plate was patted dry and left for the next step of blocking.
1.1.4. Blocking: The blocking buffer was transferred to the 384-well reaction plate at 50 µL/well, and the plate was left to stand for 1 h.
Washing: After the blocking was completed, the blocking buffer was discarded, and the plate was washed 3 times with the PBST solution according to the method in step 2. Finally, the reaction plate was patted dry.
1.1.5. A 1000-fold solution of a compound was prepared and then transferred at 1 µL/well to a 96-well plate containing 199 µL of the reaction buffer. The mixture was well mixed, and then the well mixed compound solution was transferred to the 384-well reaction plate at 5 µL/well. 1.1.6. A 25/10-fold PARP1-DNA solution was prepared with the reaction buffer and then transferred to the 384-well reaction plate at 10 µL/well. For the negative control wells, 10 µL
of the DNA solution was transferred. The final concentrations of PARP1 and DNA were 0.02 nM and 0.8 nM, respectively.
1.1.9. Washing: After the reaction was completed, the reaction solution was discarded, and the plate was washed 3 times with the PBST solution according to the method in step 2. Finally, the reaction plate was patted dry.
1.1.10. A primary antibody (anti-Poly/Mono-ADP Ribose Rabbit mAb) was diluted 2000-fold with the blocking buffer and then added at 20 µL/well.
1.1.11. Washing: The primary antibody was discarded, and the plate was washed 3 times with the PBST solution according to the method in step 2. Finally, the reaction plate was patted dry.
1.1.12. A secondary antibody (anti-rabbit IgG, HRP-linked Antibody) was diluted 2000-fold with the blocking buffer and then added at 20 µL/well.
1.1.13. Washing: The secondary antibody was discarded, and the plate was washed 3 times with the PBST solution according to the method in step 2. Finally, the reaction plate was patted dry.
1.1.14. Color development: Femto-ECL Substrate A and Femto-ECL Substrate B were mixed at a ratio of 1:1, and the mixture was transferred to the 384-well reaction plate at 25 µL/well. 1.1.15. Reading: The chemiluminescence values (RLU) were measured using Envision.

[1] = tested on: BRCA wild-type DLD-1 cells; assay: Anti-proliferative activity against cells (CCK8): DLD-1; type: cell-based; settings: Homo sapiens, 72 h + 96 h culture
Experimental: BRCA wild-type DLD-1 cells were cultured in an RPMI-1640 medium containing 10% fetal bovine serum, 100 U/mL penicillin, and 100 µg/mL streptomycin, and incubated in an incubator with 5% saturated CO2 at 37 °C. When the cells grew to 80% confluence, they were collected, centrifuged at 300 g for 10 min, and then plated onto a 96-well plate at 1000 cells/well. After 24 h, different final concentrations (0 µM, 1 µM, and 10 µM) of PARPi were added, and the cells were cultured for another 72 h. The cells were subjected to medium exchange treatment (re-supplemented with PARPi at the same final concentrations) and then cultured for another 96 h. The 96-well plate was taken out.

[2] = tested on: BRCA-mutated MDA-MB-436 cells; assay: Anti-proliferative activity against cells (CCK8): MDA-MB-436; type: cell-based; settings: Homo sapiens, 72 h + 96 h culture

T1 sequence (P09874 whole entry): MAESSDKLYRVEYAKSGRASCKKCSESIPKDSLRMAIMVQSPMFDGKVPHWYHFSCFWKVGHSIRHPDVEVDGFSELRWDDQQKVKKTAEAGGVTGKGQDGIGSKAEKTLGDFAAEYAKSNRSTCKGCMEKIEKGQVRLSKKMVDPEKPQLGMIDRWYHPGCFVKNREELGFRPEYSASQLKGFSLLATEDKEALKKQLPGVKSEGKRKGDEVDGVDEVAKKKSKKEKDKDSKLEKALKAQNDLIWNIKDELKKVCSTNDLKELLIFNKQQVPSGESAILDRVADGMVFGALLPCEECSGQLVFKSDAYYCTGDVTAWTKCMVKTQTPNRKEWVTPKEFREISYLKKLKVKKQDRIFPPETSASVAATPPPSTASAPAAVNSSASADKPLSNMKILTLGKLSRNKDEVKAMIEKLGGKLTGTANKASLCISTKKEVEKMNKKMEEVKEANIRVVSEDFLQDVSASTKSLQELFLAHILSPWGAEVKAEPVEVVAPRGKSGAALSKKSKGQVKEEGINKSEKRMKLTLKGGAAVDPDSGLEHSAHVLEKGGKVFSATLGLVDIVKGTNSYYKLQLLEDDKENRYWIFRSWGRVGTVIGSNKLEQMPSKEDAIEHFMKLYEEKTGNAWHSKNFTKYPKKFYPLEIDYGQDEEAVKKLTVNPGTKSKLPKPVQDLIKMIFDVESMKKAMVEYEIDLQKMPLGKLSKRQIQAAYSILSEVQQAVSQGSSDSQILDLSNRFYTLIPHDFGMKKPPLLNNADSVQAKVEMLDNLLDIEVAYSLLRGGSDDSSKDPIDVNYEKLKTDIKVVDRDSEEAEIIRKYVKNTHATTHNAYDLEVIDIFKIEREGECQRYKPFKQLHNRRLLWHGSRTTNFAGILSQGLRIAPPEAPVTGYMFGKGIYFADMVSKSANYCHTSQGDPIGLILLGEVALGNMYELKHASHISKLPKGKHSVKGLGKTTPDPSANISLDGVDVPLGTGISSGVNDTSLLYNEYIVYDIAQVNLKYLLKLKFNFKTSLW

Compound	IC50 (PARP1)	IC50 [1]	IC50 [2]
CNC(=O)c1ccc(N2CCN(CC3Cc4[nH]c(=O)c(C5CC5)cc4CO3)CC2)c(F)n1 (stereo not drawn) [Example 42, 5-(4-((3-Cyclopropyl-2-oxo-1,5,7,8-tetrahydro-2H-pyrano[4,3-b]pyridin-7-yl)methyl)piperazin-1-yl)-6-fluoro-N-methylpicolinamide]	0.05 to 0.5 µM	> 1 µM	
COC1CC(NC(=O)c2ccc(N3CCN(CC4Cc5[nH]c(=O)c(C)cc5CO4)CC3)c(F)n2)C1 (stereo not drawn) [Example 79, 6-Fluoro-N-(3-methoxycyclobutyl)-5-(4-((3-methyl-2-oxo-1,5,7,8-tetrahydro-2H-pyrano[4,3-b]pyridin-7-yl)methyl)piperazin-1-yl)picolinamide]		> 1 µM	0.13 µM
CNC(=O)c1ccc(N2CCN(C(C)[C@H]3CCc4nc(C)c(=O)[nH]c4C3)CC2)c(F)n1 (stereo partly drawn) [Example 71, (S)-6-Fluoro-N-methyl-5-(4-(1-(2-methyl-3-oxo-3,4,5,6,7,8-hexahydroquinoxalin-6-yl)ethyl)piperazin-1-yl)picolinamide]	≤ 0.05 µM	> 1 µM	
CNC(=O)c1ccc(N2CCN(CC3Cc4[nH]c(=O)c(Br)cc4CO3)CC2)c(F)n1 (stereo not drawn) [Example 40, 5-(4-((3-Bromo-2-oxo-1,5,7,8-tetrahydro-2H-pyrano[4,3-b]pyridin-7-yl)methyl)piperazin-1-yl)-6-fluoro-N-methylpicolinamide]	≤ 0.05 µM	> 1 µM	
CNC(=O)c1ccc(C2=CCN(C[C@H]3CCc4nc(C5CC5)c(=O)[nH]c4C3)CC2)c(F)n1 [Example 56, (S)-1'-((2-Cyclopropyl-3-oxo-3,4,5,6,7,8-hexahydroquinoxaline-6-yl)methyl)-2-fluoro-N-met hyl-1',2',3',6'-tetrahydro-[3,4'-bipyridine]-6-carboxamide]	≤ 0.05 µM	> 1 µM	
CCc1cc2c([nH]c1=O)C[C@H](CN1CCN(c3ccc(C(=O)NC)nc3F)CC1)OC2 [Example 66, (R)-5-(4-((3-ethyl-2-oxo-1,5,7,8-tetrahydro-2H-pyrano[4,3-b]pyridin-7-yl)methyl)piperazin-1-yl)-6-fluoro-N-methylpicolinamide]		> 1 µM	0.0045 µM
CNC(=O)c1ccc2c(n1)COC[C@H]1CN(CC3Cc4[nH]c(=O)c(C)cc4CO3)CCN21 (stereo partly drawn) [Example 92, (4aR)-N-Methyl-3-((3-methyl-2-oxo-1,5,7,8-tetrahydro-2H-pyrano[4,3-b]pyridin-7-yl)methyl) -1,2,3,4,4a,5-hexahydro-7H-pyrazino[2,1-c]pyrido[3,2-e][1,4]oxazolidine-9-carboxamide]	≤ 0.05 µM	> 1 µM	
CNC(=O)c1ccc(N2CCN(C[C@H]3CCc4nc(C5CC5)c(=O)[nH]c4C3)CC2)c(F)n1 [Example 57, (S)-5-(4-((2-Cyclopropyl-3-oxo-3,4,5,6,7,8-hexahydroquinoxaline-6-yl)methyl)piperazin-1-yl)-6-fluoro-N-methylpicolinamide]	≤ 0.05 µM	> 1 µM	
CNC(=O)c1ccc(N2CCN(CC3COc4cc(Cl)c(=O)[nH]c4C3)CC2)c(F)n1 (stereo not drawn) [Example 86, 5-(4-((7-Chloro-6-oxo-3,4,5,6-tetrahydro-2H-pyrano[3,2-b]pyridin-3-yl)methyl)piperazin-1-yl)-6-fluoro-N-methylpicolinamide]	0.05 to 0.5 µM	> 1 µM	
CNC(=O)c1ccc(N2CCN(CC3Cc4[nH]c(=O)c(SC)cc4CO3)CC2)c(F)n1 (stereo not drawn) [Example 96, 6-Fluoro-N-methyl-5-(4-((3-(methylthio)-2-oxo-1,5,7,8-tetrahydro-2H-pyrano[4,3-b]pyridin-7-yl)methyl)piperazin-1-yl)picolinamide]	≤ 0.05 µM	> 1 µM	
CCc1cc2c([nH]c1=O)CC(CN1CC=C(c3ccc(C(=O)NC4CC4)nc3F)CC1)CC2 (stereo not drawn) [Compound 29, N-Cyclopropyl-1'-((3-ethyl-2-oxo-1,2,5,6,7,8-hexahydroquinoline-7-yl)methyl)-2-flu oro-1',2',3',6'-tetrahydro-[3,4 '-bipyridine]-6-carboxamide]	≤ 0.05 µM		
CCc1nc2c([nH]c1=O)C[C@@H](CN1CCN3c4ccc(C(=O)NC)nc4COC[C@H]3C1)CC2 [Example 105]	≤ 0.05 µM		
[2H]C([2H])([2H])NC(=O)c1ccc(C2=CCN(CC3CCc4cc(CC)c(=O)[nH]c4C3)CC2)cn1 (stereo not drawn) [Compound 26, 1'-((3-Ethyl-2-oxo-1,2,5,6,7,8-hexahydroquinoline-7-yl)methyl)-N-(methyl-d3)-1',2', 3',6'-tetrahydro-[3,4'-bipyridine]-6-carboxamide]	≤ 0.05 µM		
CCc1cc2c([nH]c1=O)CC(CN1CCN(c3ccc(C(=O)NC)nc3)CC1)CC2 (stereo not drawn) [Compound 15, 5-(4-((3-Ethyl-2-oxo-1,2,5,6 ,7,8-hexahydroquinoline-7-yl)methyl)piperazin-1-yl)-N-methylpicolinamide]	≤ 0.05 µM		
CCc1cc2c([nH]c1=O)CC(CN1CCN(c3ccc(C(=O)NC)nc3F)C[C@H]1C)OC2 (stereo partly drawn) [Example 75, 5-((3R)-4-((3-Ethyl-2-oxo-1,5,7,8-tetrahydro-2H-pyrano[4,3-b]pyridin-7-yl)methyl)-3-methylpiperazin-1-yl)-6-fluoro-N-methylpicolinamide]	0.05 to 0.5 µM		
CCc1cc2c([nH]c1=O)CC(CN1CCN(c3ccc(C(=O)NC)nc3C)CC1)CC2 (stereo not drawn) [Compound 17, 5-(4-((3-Ethyl-2-oxo-1,2,5,6 ,7,8-hexahydroquinoline-7-yl)methyl)piperazin-1-yl)-N,6-dimethylpicolinamide]	≤ 0.05 µM		
[2H]C([2H])([2H])NC(=O)c1ccc(N2CCN(C([2H])([2H])[C@H]3CCc4nc(C)c(=O)[nH]c4C3)CC2)c(F)n1 [Example 84, (S)-6-Fluoro-N-(methyl-d3)-5-(4-((2-methyl-3-oxo-3,4,5,6,7,8-hexahydroquinoxalin-6-yl)methyl-d2)piperazin-1-yl)picolinamide]		> 1 µM	
CCc1nc2c([nH]c1=O)C[C@@H](CN1CCN(c3ccc(C(=O)NC)nc3F)CC1)CC2 [Example 48, (S)-5-(4-((2-Ethyl-3-oxo-3,4,5,6,7,8-hexahydroquinoxalin-6-yl)methyl)piperazin-1-yl)-6-fluor o-N-methylpicolinamide]	≤ 0.05 µM	> 1 µM	
CCc1cc2c([nH]c1=O)CC(CN1CC=C(c3ccc(C(=O)NC4CC4)nc3)CC1)CC2 (stereo not drawn) [Compound 28, N-Cyclopropyl-1'-((3-ethyl-2-oxo-1,2,5,6,7,8-hexahydroquinoline-7-yl)methyl)-1',2', 3',6'-tetrahydro-[3,4'-bipyridine]-6-carboxamide]	≤ 0.05 µM		
CCc1cc2c([nH]c1=O)CC(CN1CCN(c3ccc(C(=O)NC4CC4)nc3F)CC1)CC2 (stereo not drawn) [Compound 21, N-Cyclopropyl-5-(4-((3-ethyl-2-oxo-1,2,5,6,7,8-hexahydroquinoline-7-yl)methyl)piperazin-1-yl)-6-fluoropicoli namide]	≤ 0.05 µM		
CCc1cc2c([nH]c1=O)CC(CN1CC=C(c3ccc(C(=O)NC)nc3)CC1)CC2 (stereo not drawn) [Compound 23, 1'-((3-Ethyl-2-oxo-1,2,5,6,7,8-hexahydroquinoline-7-yl)methyl)-N-methyl-1',2',3',6'-tetrahydro-[3,4'-bipyridine]-6-carboxamide]	≤ 0.05 µM		
CCc1cc2c([nH]c1=O)CC(CN1CCN(c3ccc(C(=O)NC)nc3F)CC1)CC2 (stereo not drawn) [Compound 16, 5-(4-((3-Ethyl-2-oxo-1,2,5,6 ,7,8-hexahydroquinoline-7-yl)methyl)piperazin-1-yl)-6-fl uoro-N-methylpicolinamide]	≤ 0.05 µM		
